Data set [1] relates to SW480 colon carcinoma cells. Kind of data set: Clonogenic radiation survival of SW480 cells. The settings on record: 30 μM FTI-277, 24 hours before irradiation. Type of data set: cell-based, human. On the procedure: SW480 cells were treated for 24 hours with 30 μM FTI-277 before irradiation. Clonogenic survival was subsequently assessed in the cells. Treatment with the inhibitor was maintained for 24 hours after irradiation, at which time medium was replaced with inhibitor free medium. Control cells were treated as above with diluent. Open squares: control cells; closed squares: FTI-277 treated cells.
FIG. 18B is a graph depicting a reduction in the radiation survival of SW480 cells following inhibition of K-ras prenylation by FTI-277 and GGTI-298. SW480 cells were treated for 24 hours with 5 μM FTI-277 and 8 μM GGTI-298 before irradiation and assessment of clonogenic survival. Inhibitor treatment was maintained for 24 hours after irradiation, at which time the medium was replaced with inhibitor free medium. Control cells were treated as above with an equal amount of drug-free diluent. Open squares: control cells; closed squares: FTI and GGTI treated cells.

A further data set has as its system K-ras. In words: Western blot of K-ras prenylation in SW480 and Panc-1 cells. Type of data set: cell-based, human. As to conditions: SW480 cells, 48 hours. On the procedure:
FIG. 17A is an image of a Western blot depicting inhibition by FTI-277 of K-ras prenylation in human SW480 colon carcinoma cells. SW480 cells were treated with the indicated concentrations of FTI-277 (μM) for 48 hours. Samples were harvested and cell lysates were analyzed by Western blotting using either a H-ras monoclonal antibody (top) or a K-ras monoclonal antibody (bottom). Arrows indicate unfarnesylated ras bands.
FIG. 18A is an image of a Western blot depicting the specific inhibition of K-ras prenylation by combined FTI-277 and GGTI-298 treatment. Log phase cultures of human pancreatic carcinoma cells (Panc-1) and colon carcinoma cells (SW480) were treated with 5 μM FTI and 8 μM GGTI 298 for 48 hours. Cell samples were then harvested and cell lysates were prepared for Western blot analysis using monoclonal antibodies to K-ras and nuclear lamin B. The electrophoretic mobility of the K-ras mutant in SW480 is slower than that of the mutant K-ras in Panc-1 cells.

Another data set relates to H-ras^v12 CVLL. Kind of data set: Western blot of prenylation of chimeric H-ras in REF-GG cells. Type of data set: cell-based, rat. The settings on record: up to 10 μM. An excerpt: The oncogene-transfected cells used in this study were all derived from early passage rat embryo fibroblast (REF) by transfection with the pEJ plasmid containing the H-ras gene isolated from the EJ bladder carcinoma. This vector was introduced by calcium phosphate DNA transfer into primary REF, either alone or together with the pMC29 vector containing v-myc. One clone containing both the introduced H-ras gene and the v-myc genes is 3.7 (McKenna et al., 1990, Cancer Res. 50:97-102). 4R and 5R cells were obtained as rare transformants after transfection with the pEJ plasmid alone (McKenna et al., 1993, supra). MR4 cells were immortalized by transfection with an expression vector comprising v-myc linked to a neomycin-resistant selectable marker (McKenna et al., 1991, Radiat. Res. 125:283-287). REF-GG cells were obtained by transforming REF cells with a chimeric H-ras(v12) in which the CAAX motif is CVLL. All cell lines were mycoplasma free.
Cells were lysed in culture dishes with 1 x reducing Laemmli sample buffer. Samples were boiled, sheared and clarified by centrifugation at 14,000 rpm in a microfuge before storage at −20° C. Samples containing equal amounts of protein were separated on a 12% SDS polyacrylamide gel and electrophoretically transferred to nitrocellulose membranes. […]

Data set [2] concerns REF, 3.7, 4R, 5R and REF-GG cells. In words: Apoptosis determination after 10 Gray irradiation (propidium iodide). Type of data set: cell-based, rat. On the procedure:
3×10^3 cells/well in 24-well plates were allowed to attach for 12 hours and were then treated with medium containing FTI-277 in DMSO or an equivalent volume of DMSO without inhibitor. Twenty four hours after irradiation with 10 Gray using the irradiator described above, both adherent and non-adherent cells were harvested. Cells were stained with propidium iodide (Muschel et al., 1995, Cancer Res. 55:995-998). A minimum of three independent fields of 100 cells were counted for each sample. Scoring of samples was performed in a double blind manner.

Another data set concerns H-ras. Kind of data set: H-ras prenylation in human colon carcinomas grown in nude mice. It is filed as in vivo, mouse. As to conditions: SW480 and LoVo tumors in nude mice, two intraperitoneal injections of 50 mg/kg. As for the experimental part:
Expression of H-ras was detected by Western blot analysis using anti-H-ras monoclonal antibody of lysates of the human colon adenocarcinomas, SW480 and LoVo, grown in nude mice. Lysates were obtained from tumors excised from a vehicle (DMSO) treated mouse (Lane 1) and mice treated twice with intraperitoneal injections of 50 mg/kg of FTI-277 18 hours after treatment was initiated (Lanes 2 and 3). Lane 1 and 2: SW480, Lane 3: LoVo. The arrow denotes the migration of unfarnesylated H-ras.
To examine the effectiveness of prenylation inhibitors in vivo in an animals, both rodent and human tumor responses to these inhibitors were examined in tumor grafts growing on nude mice. The protocols described in Hoffinan (1992, Curr, Perspect. on Molec. & Cell. Oncol. 1:311-326) were followed to establish and grow tumors in nude mice.
To perform the assay, tumors were implanted and allowed to grow to approximately 125 mm^3. Mice having these tumors were then administered 50 mg/kg FTI-277 by intraperitoneal injection. Controls included mice which were injected with an equal volume of drug-free carrier solution. Two injections were given to each mouse, one at 18 hours and a second at 5 hours prior to sacrificing each mouse. The tumor ras prenylation status of the mice was subsequently assessed as described herein.

For `COC(=O)[C@H](CCSC)NC(=O)c1ccc(NC[C@@H](N)CS)cc1-c1ccccc1` [FTI-277], the radiation survival result in data set [1] is recorded as “reduction in radiation survival”. The “concentration at which altered migration of K-ras became evident” value in the data set with K-ras was 30 µM. Further, the “mobility of H-ras-CVLL” value with H-ras^v12 CVLL is given as “no change in the mobility of H-ras-CVLL”. The “inhibitor concentration of maximum effect on apoptosis” value in data set [2] (3.7 cells, 10 Gray) was 5 µM. The apoptosis after irradiation entry in data set [2] (3.7 cells, 10 Gray, 2.5 μM) was “significant increase”; in data set [2] (untransformed REF cells, 10 Gray) it was “did not result in an increase in apoptosis”. In addition, the “extent of apoptosis induced by irradiation” value in data set [2] (3.7 cells, 10 Gray, 24 hours) is “greatly enhanced”. The irradiation-induced apoptosis result in data set [2] (4R and 5R cells, 10 Gray) is “augment irradiation-induced apoptosis”. In data set [2] (48 hours, highest doses, 3.7 cells only), the “toxicity of the inhibitor” value is “some toxicity”. Also, in data set [2] (REF-GG cells), the “extent of apoptosis after irradiation” value is recorded as “no significant effect”. Besides, the “baseline level of apoptosis” value in data set [2] (REF-GG cells, unirradiated) is “slightly increased”. For the same molecule, the “H-ras migration in tumors” value in the data set on H-ras was “altered H-ras migration”.
